Test: DPPH radical scavenging (antioxidant) assay
Assay type: biochemical
Conditions: vitamin C 1 mM
Description: The antioxidant activity of the natural composite preservatives was analyzed with DPPH (1,1-diphenyl-2-picrylhydrazyl). DPPH is a color radical generally used in determining radical scavenging capacity. Test samples were dissolved in 4 ml of distilled water or a solvent and mixed with 1 ml of 100 μM DPPH before incubation at room temperature for 30 min. Absorbance at 517 nm was read to calculate the amount of remaining DPPH (blank: distilled water or solvent only, control: DPPH alone in distilled water or solvent). Radical Scavenging Activity (RSA) was expressed as percentages of the test groups relative to the control, as calculated by the following equation 1.

O=C1O[C@H]([C@@H](O)CO)C(O)=C1O [vitamin C]
RSA: 35%
